Measurements as given in patent publication US20230159509A1 (Amathus Therapeutics, Inc., priority 2020, published 2023).

What was measured:
Assay type in all cases: cell-based
[1] = tested on: primary rat dopaminergic TH-positive neurons; assay: ROS production and neurite network in primary rat dopaminergic TH-positive neurons injured with MPP+ or 6-OHDA
[2] = tested on: human α-synuclein-WT; assay: α-synuclein expression and aggregation assay in differentiated neuronal ReNcell VM cells
Method: Assay measuring α-synuclein expression and aggregation in differentiated neuronal ReNcell VM cells transduced with human α-synuclein-WT were used to assess the α-synuclein modulation characteristics of compounds. To this purpose, ReNcell VM cells in growth medium (containing EGF and bFGF) were seeded in 96-well laminin-coated plates.
Three (3) days post-seeding, on DO, the cells were refreshed with differentiation medium (devoid of EGF and bFGF, supplemented with cAMP and GDNF) and transduced with α-synuclein-encoding adenoviruses. On D1, after overnight transduction, the adenoviral medium was removed and test compound CRCs diluted in differentiation medium were added to the cells in biological duplicates (i.e. in wells located on separate assay plates processed on the same day). The assay includes a compound refreshment on D4. On each plate tested, up to six (6) vehicle control samples (0.1% DMSO) and up to six (6) positive control samples (10 μM KU 0063794) were included. Furthermore, each assay run includes an 8-point CRC of the reference compound KU 0063794. After six (6) days of compound treatment (on D7), the cells were fixed using 3.7% formaldehyde.
Assay readouts were aggregate-selective (MJFR-14) and α/β-synuclein (Syn205) immunoreactivity, quantified using high-content analysis with algorithms for Density×Area (D×A). Co-staining of cell nuclei with DAPI is performed to quantify cell number as a measure of potential toxicity. Synuclein immunoreactivity (D×A) was normalized for the number of nuclei (nuc) per imaged well (D×A/nuc). Compound performance was evaluated by efficacy (percentage inhibition (PIN) relative to positive control) and potency (pIC50, when calculable) determination.
Assay quality was confirmed using the following pre-set criteria: Toxicity: ≤25% nuclei loss compared to average DMSO control, Coefficient of variation (CV): ≤20% CV for DMSO control, Assay window: ≥2.0 for Syn205, and Assay window: ≥1.5 for MJF-14.

[3] = tested on: α-synuclein; assay: α-synuclein aggregation in human embryonic stem cells overexpressing α-synuclein with an AAV vector; settings: FIG. 9

SMILES: COc1ncc(NC(=O)c2csc(-c3ccccc3)n2)cc1S(=O)(=O)Nc1c(C)cccc1C [compound 1178]
- neurite network of primary rat TH+ dopaminergic neurons ([1]; injured with MPP+ (4 μM, 24 h), FIG. 4): protection of the neurite network
- neurite network of primary rat TH+ dopaminergic neurons ([1]; injured with MPP+ (4 μM, 48 h), FIG. 5): protection of neurite network
- ROS production in primary rat dopaminergic neurons ([1]; injury with 6-OHDA (20 μM, 4 h), FIG. 8): reduction in ROS
- ROS production in primary rat dopaminergic neurons ([1]; injury with MPP+ (4 μM, 4 h), FIG. 2): reduction of reactive oxygen species (ROS)
- ROS production in rat primary mesencephalic culture ([1]; injury with MPP+ (4 μM, 4 h), FIG. 3): reduction ROS
- MJFR-14 Max efficacy (PE) ([2]; MJFR-14): 36.2
- MJFR-14 Max efficacy (PIN) ([2]; MJFR-14, percentage inhibition relative to positive control (10 μM KU 0063794)): 52.1
- Syn205 Max efficacy (PE) ([2]; Syn205): 44.9
- Syn205 Max efficacy (PIN) ([2]; Syn205, percentage inhibition relative to positive control (10 μM KU 0063794)): 64.7
- MJFR-14 Potency (pIC50) ([2]; aggregate-selective (MJFR-14) immunoreactivity, D×A/nuc): 5.6
- Syn205 Potency (pIC50) ([2]; α/β-synuclein (Syn205) immunoreactivity, D×A/nuc): 5.6
- α-synuclein aggregation [3]: reduction in α-synuclein aggregation
